Results reported in patent US20180213776A1, “COMPOSITIONS FOR C[…] POPULATIONS” (PRESIDENT AND FELLOWS OF HARVARD COLLEGE, priority 2015, published 2018).

How the values were obtained:
An. gambiae females [1] = experiment: Mating success (insemination) after topical DBH application; type: in vivo
Procedure: (§1) An. gambiae mosquitoes of the G3 strain were employed in all experiments. All mosquitoes were maintained under standard insectary conditions (26-28° C., 65-80% relative humidity, 12:12 hours light/dark photoperiod).
(§2) The DBH compound methoxyfenozide (0.5 μl of a 0.4% solution re-suspended in acetone) (Sigma-Aldrich, 32507) was topically applied to the thorax of An. gambiae females anesthetized on ice using a micropipette. Mating success, egg development after blood feeding and longevity were determined relative to acetone-treated controls. Females were 2 days old at the time of application, and each experiment was replicated twice. The effects of methoxyfenozide on mating success were determined by adding DBH-treated and control virgin females into separate cages containing a large excess of 5 day-old virgin males, 24 hours following topical application. 48 hours later successfully inseminated (mated) females from each cage were determined via dissection and the presence of sperm in the spermatheca. […] Egg development was evaluated 3 days later upon dissection of the ovaries.
(§3) A mating effect experiment was comprised of an unexposed and exposed group with cases defined as those who mated. The efficacy of the mating effect was defined as the prevented fraction in exposed, i.e. one minus the risk ratio. […]

mammals = conditions: cited from earlier work
An. gambiae females [2] = experiment: Dose dependency of egg laying (oviposition); type: in vivo; conditions: for individuals laying eggs: 24 hours prior to blood feeding, control 100%
Procedure: as §1
Mated females were tested for their ability to develop and lay eggs when exposed to DBH 24 hours prior to blood feeding at 5 different doses ranging in a 2-fold dilution series from about 2 μg to about 0.125 μg per mosquito, respectively. One hundred percent (100%) of the control females oviposited after a blood meal. […] An ED50 dose of […] (0.08-0.13 95% CI) was determined from the dose-response curve (slope of 2.32, R=0.993). Moreover, even in cases where females oviposited, a significant reduction in the number of eggs laid was detected at the three highest doses (e.g., 2 μg; 1 μg; and 0.5 μg), with a median egg number of zero compared to a median of 91.5 eggs in the control group.

Aedes species = experiment: Preliminary data on eggs of Aedes species; type: in vivo
[3] = system: P. falciparum (NF54 strain); experiment: P. falciparum infection (oocysts) after infectious blood meal; type: in vivo
Procedure: (§4) At the highest dose (2 μg), only 7.5% of females who fully engorged on an infectious blood meal were positive for oocysts, corresponding to an 87% reduction in infection prevalence relative to controls.

An. gambiae females [4] = experiment: Egg development after blood feeding; type: in vivo
Procedure: as §1, §2, §3

An. gambiae females [5] = experiment: Longevity / mortality after DBH exposure; type: in vivo
Procedure: as §1
For the longevity experiments, DBH-treated and control females were maintained in cups and supplied ad libitum with a 10% sucrose solution and water. Mortality rates after DBH/acetone exposure were recorded daily for 2 weeks, encompassing the period needed for mosquitoes to become infectious.
Day post-exposure was stratified to account for the time varying nature in the mortality effect experiment. For each day, there is the number of exposed and unexposed mosquitoes surviving to that day (risk set), and the number in each group surviving through that day. Using the risk set in day i, the relative risk of surviving through day i (RRi) is estimated, comparing the exposed to the unexposed. The efficacy for the mortality was defined as one minus RRi for day i. The confidence interval for the relative risk of survival was estimated using a Normal approximation of ln(RRi), with standard error:
as §4

[6] = system: primary ovarian follicles; experiment: TUNEL assay of ovaries (apoptosis of ovarian follicles); type: in vivo, An. gambiae; conditions: 24 hours after DBH exposure
Description: Induction of autogenous egg development after exposure was not observed.

methoxyfenozide [DBH]
efficacy: reduced mating success (reduction) (An. gambiae females [1]; prevented fraction in exposed, 68% CI 58-73%): 67% | females successfully inseminated by males (sperm in the spermatheca) (An. gambiae females [1]; treated once, 0.5 μl of 0.4% solution topically to thorax, controls 86%): 29% | carcinogenicity (mammals): non-carcinogenic | toxicity to mammals (mammals): not toxic to mammals unless used at extremely high concentrations | females with no eggs developed in the ovaries despite fully engorging on blood (An. gambiae females [2]; all DBH-exposed groups, upon dissection): 98.7% | individuals laying eggs (An. gambiae females [2]; highest dose 2 μg per mosquito): 10.9% | induction of autogenous egg development after exposure (An. gambiae females [2]; in vivo): not observed | individuals laying eggs (An. gambiae females [2]; median dose 0.5 μg per mosquito): 47.4% | median egg number laid (An. gambiae females [2]; three highest doses (2 μg; 1 μg; 0.5 μg), control median 91.5 eggs): zero | effect on eggs (Aedes species): deformed eggs | reduction in infection prevalence relative to controls ([3]; 2 μg): 87% | females positive for oocysts ([3]; 2 μg, 7 days post-infectious blood meal, control 58.5%): 7.5% | intensity of infection in females that developed oocysts ([3]; in vivo): not significantly affected | oocyst prevalence ([3]; low dose 0.125 μg, control 58.5%): 50.7% | females failed to develop an infection ([3]; median dose 0.5 μg): 25.8% | reduction in prevalence ([3]; median dose 0.5 μg): 56% | egg development after blood feeding (An. gambiae females [4]; 0.5 μl of 0.4% solution topical, blood fed 24 hours after application, ovaries dissected 3 days later): completely abolished | efficacy: impaired egg development (reduction) (An. gambiae females [4]; prevented fraction in exposed, add-one smoothing, 68% CI 94-99%): 98% | median survival time (An. gambiae females [5]; 0.125 μg, control 19 days): 16 days | median survival time (An. gambiae females [5]; 2 μg, control 19 days): 11 days | mortality over 14 days (An. gambiae females [5]; 0.5 μl of 0.4% solution topical, controls 10%): ~100% | median survival time (An. gambiae females [5]; 0.5 μl of 0.4% solution topical, recorded 2 weeks): 8 days | efficacy: maximum increase in daily mortality rate (An. gambiae females [5]; day 8 post exposure, 68% CI 37-72%): 60% | reduction in median survival time compared to controls (An. gambiae females [5]; highest dose (2 μg)): eight | TUNEL: apoptosis of primary ovarian follicles [6]: extensive fragmentation of chromatin, indicative of apoptosis
